Consider 16 compounds from patent publication US10683297B2 (Sunshine Lake Pharma Co., Ltd., priority 2017, dated 2020).

Each structure is given as a SMILES string.

For one assay, the target named is T1, Aurora-A (h) (Homo sapiens, UniProt O14965).
T1 construct: purchased Millipore UK Ltd (assays performed there as a service)
T1 sequence (O14965 1-403): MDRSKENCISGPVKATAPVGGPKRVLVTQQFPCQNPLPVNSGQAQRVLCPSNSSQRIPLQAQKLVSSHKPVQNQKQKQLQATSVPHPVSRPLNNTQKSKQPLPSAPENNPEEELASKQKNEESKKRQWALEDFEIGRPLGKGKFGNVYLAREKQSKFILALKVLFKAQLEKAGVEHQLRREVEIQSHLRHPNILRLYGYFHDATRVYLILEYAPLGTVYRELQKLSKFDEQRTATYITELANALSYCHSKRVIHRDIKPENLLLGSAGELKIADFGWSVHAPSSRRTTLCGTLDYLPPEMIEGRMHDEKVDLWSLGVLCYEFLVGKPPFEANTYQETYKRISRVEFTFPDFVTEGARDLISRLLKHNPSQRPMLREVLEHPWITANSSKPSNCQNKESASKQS
Nature of the assay: Aurora-A (h) kinase assay. In kind it is biochemical. The settings on record: [γ-33P-ATP] 10 μM or KM values; 40 minutes at room temperature. The procedure: (§1) The above assay procedure can be used to determine the IC50 for inhibition and/or the inhibition constant, Ki. […] The IC50 value is estimated by preparing a 10 point curve using a ½ log dilution series (for example, a typical curve may be prepared using the following compound concentrations: 3 μM, 1 μM, 0.3 μM, 0.1 μM, 0.03 μM, 0.01 μM, 0.003 μM, 0.001 μM, 0.0003 μM and 0 μM).
Aurora-A (h) is incubated with 8 mM MOPS pH 7.0, 0.2 mM EDTA, 200 μM LRRASLG (Kemptide), 10 mM MgAcetate and [γ-^33P-ATP] […] The reaction is initiated by the addition of the MgATP mix. After incubation for 40 minutes at room temperature, the reaction is stopped by the addition of 3% phosphoric acid solution. 10 μL of the reaction is then spotted onto a P30 filtermat and washed three times for 5 minutes in 75 mM phosphoric acid and once in methanol prior to drying and scintillation counting.
(§2) The kinase assays described herein were performed at Millipore UK Ltd, Dundee Technology Park, Dundee DD2 1SW, UK.

The next assay addresses T2, JAK3 (h) (Homo sapiens, UniProt P52333).
T2 construct: purchased Millipore UK Ltd (assays performed there as a service)
T2 sequence (P52333 1-1124): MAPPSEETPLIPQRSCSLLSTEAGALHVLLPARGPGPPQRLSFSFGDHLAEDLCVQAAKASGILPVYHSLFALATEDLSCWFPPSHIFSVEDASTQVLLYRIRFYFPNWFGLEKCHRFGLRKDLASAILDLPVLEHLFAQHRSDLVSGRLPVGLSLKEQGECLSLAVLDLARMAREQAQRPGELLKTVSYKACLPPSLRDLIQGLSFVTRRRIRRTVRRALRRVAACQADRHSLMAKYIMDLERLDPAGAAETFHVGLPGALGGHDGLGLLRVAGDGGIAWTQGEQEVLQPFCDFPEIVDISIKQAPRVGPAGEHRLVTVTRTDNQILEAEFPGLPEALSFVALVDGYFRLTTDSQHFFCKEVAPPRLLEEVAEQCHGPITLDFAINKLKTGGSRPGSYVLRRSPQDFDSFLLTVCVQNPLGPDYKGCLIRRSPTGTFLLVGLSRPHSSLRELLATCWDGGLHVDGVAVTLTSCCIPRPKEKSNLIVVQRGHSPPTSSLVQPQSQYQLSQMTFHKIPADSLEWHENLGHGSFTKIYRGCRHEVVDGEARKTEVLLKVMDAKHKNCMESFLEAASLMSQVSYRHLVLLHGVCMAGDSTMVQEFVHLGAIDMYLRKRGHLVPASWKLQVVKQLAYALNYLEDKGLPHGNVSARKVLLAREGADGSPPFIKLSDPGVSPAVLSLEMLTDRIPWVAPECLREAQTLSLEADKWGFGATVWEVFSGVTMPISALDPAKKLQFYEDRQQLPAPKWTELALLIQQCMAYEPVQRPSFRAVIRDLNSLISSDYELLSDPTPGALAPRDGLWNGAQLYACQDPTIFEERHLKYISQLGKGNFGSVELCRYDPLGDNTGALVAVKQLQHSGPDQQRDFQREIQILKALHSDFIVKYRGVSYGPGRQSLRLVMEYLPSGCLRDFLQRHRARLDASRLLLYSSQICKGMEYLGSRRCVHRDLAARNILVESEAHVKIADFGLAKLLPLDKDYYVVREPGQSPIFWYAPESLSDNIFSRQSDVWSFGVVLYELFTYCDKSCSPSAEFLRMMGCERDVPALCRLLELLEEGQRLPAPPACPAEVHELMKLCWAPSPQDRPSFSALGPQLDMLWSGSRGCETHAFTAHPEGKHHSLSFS
Nature of the assay: JAK3 (h) kinase assay. In kind it is biochemical. The settings on record: [γ-33P-ATP] 10 μM or KM values; 40 minutes at room temperature. The procedure:
Kinase assays can be performed by measurement of incorporation of γ-^33P ATP into immobilized myelin basic protein (MBP). High binding white 384 well plates (Greiner) are coated with MBP (Sigma # M-1891) by incubation of 60 μL well of 20 μg/mL MBP in Tris-buffered saline (TBS; 50 mM Tris pH 8.0, 138 mM NaCl, 2.7 mM KCl) for 24 h at 4° C. Plates are washed 3× with 100 μL TBS. Kinase reactions are carried out in a total volume of 34 μL in kinase buffer (according to the need to make, for example, 5 mM Hepes pH 7.6, 15 mM NaCl, 0.01% bovine gamma globulin (Sigma #1-5506), 10 mM MgCl2, 1 mM DTT, 0.02% TritonX-100). Compound dilutions are performed in DMSO and added to assay wells to a final DMSO concentration of 1%. Each data point is measured in duplicate, and at least two duplicate assays are performed for each individual compound determination. Enzyme is added to final concentrations of 10 nM or 20 nM, for example. A mixture of unlabeled ATP and γ-^33P ATP is added to start the reaction (2×10^6 cpm of γ-^33P ATP per well (3000 Ci/mmole) and 10 μM unlabeled ATP, typically. The reactions are carried out for 1 hour at room temperature with shaking. Plates are washed 7× with TBS, followed by the addition of 50 μL well scintillation fluid (Wallac). Plates are read using a Wallac Trilux counter. This is only one format of such assays; various other formats are possible, as known to one skilled in the art.
as §1
[…] The reaction is initiated by the addition of the MgATP mix. After incubation for 40 minutes at room temperature, the reaction is stopped by the addition of 3% phosphoric acid solution. 10 μL of the reaction is then spotted onto a P30 filtermat and washed three times for 5 minutes in 75 mM phosphoric acid and once in methanol prior to drying and scintillation counting.
as §2

As for `Cc1cnc2cc(Nc3ncc(Cl)c(NC4CCN(c5ccc(C#N)nn5)CC4)n3)ccn12` [Example 12, 6-(4-((5-chloro-2-((3-methylimidazo[1,2-a]pyridin-7-yl)amino)pyrimidin-4-yl)amino)piperidin-1-yl)pyridazine-3-carbonitrile], inhibition at Aurora-A (h) was half-maximal at 281 nM (IC50). As for `N#Cc1ccc(N2CCC(Nc3nc(Nc4ccn5c(C(F)F)nnc5c4)ncc3Cl)CC2)nc1` [Example 30, 6-(4-((5-chloro-2-((3-(difluoromethyl)-[1,2,4]triazolo[4,3-a]pyridin-7-yl)amino)pyrimidin-4-yl)amino)piperidin-1-yl)nicotinonitrile], the figures for the IC50 at Aurora-A (h) and at JAK3 (h) were 630 nM and 127 nM, respectively. In the case of `Cc1nc2cc(Nc3ncc(Cl)c(NC4CCN(c5ccc(C#N)cn5)CC4)n3)ccn2n1` [Example 32, 6-(4-((5-chloro-2-((2-methyl-[1,2,4]triazolo[1,5-a]pyridin-7-yl)amino)pyrimidin-4-yl)amino)piperidin-1-yl)nicotinonitrile], the IC50 – broadly, the concentration needed to halve the response being measured – against Aurora-A (h) was 662 nM; against JAK3 (h), 60 nM. On to `CC(C)(O)c1nc2cc(Nc3ncc(Cl)c(NC4CCN(c5ccc(C#N)cn5)CC4)n3)ccn2n1` [Example 39, 6-(4-((5-chloro-2-((2-(2-hydroxypropan-2-yl)-[1,2,4]triazolo[1,5-a]pyridin-7-yl)amino)pyrimidin-4-yl)amino)piperidin-1-yl)nicotinonitrile], for which 708 nM corresponded to half-maximal inhibition against Aurora-A (h) (IC50).

Compound `CC(C)(O)c1nnc2cc(Nc3ncc(Cl)c(NC4CCN(c5ccc(C#N)cn5)CC4)n3)ccn12` [Example 40] displayed an IC50 at Aurora-A (h) of 119 nM. On Aurora-A (h), `Cn1cnc2cc(Nc3ncc(Cl)c(NC4CCN(c5ccc(C#N)cn5)CC4)n3)ccc21` [Example 46, 6-(4-((5-chloro-2-((1-methyl-1H-benzo[d]imidazol-5-yl)amino)pyrimidin-4-yl)amino)piperidin-1-yl)nicotinonitrile] yielded an IC50 of 187 nM.

In turn, `Cn1nnc2cc(Nc3ncc(Cl)c(NC4CCN(c5ccc(C#N)nn5)CC4)n3)ccc21` [Example 47, 6-(4-((5-chloro-2-((l-methyl-1H-benzo[d][1,2,3]triazol-5-yl)amino)pyrimidin-4-yl)amino)piperidin-1-yl)pyridazine-3-carbonitrile] gave a 50% inhibitory concentration (IC50) at Aurora-A (h) of 116 nM. On the same count and under the same terms, the same measure for `Cc1nc2cc(Nc3ncc(Cl)c(NC4CCN(c5ccc(C#N)cn5)CC4)n3)ccc2n1C` [Example 48, 6-(4-((5-chloro-2-((1,2-dimethyl-1H-benzo[d]imidazol-5-yl)amino)pyrimidin-4-yl)amino)piperidin-1-yl)nicotinonitrile]: 315 nM. As to `CC(C)(O)c1nc2cc(Nc3ncc(Cl)c(NC4CCN(c5ccc(C#N)nn5)CC4)n3)ccn2n1` [Example 55, 6-(4-((5-chloro-2-((2-(2-hydroxypropan-2-yl)-[1,2,4]triazolo[1,5-a]pyridin-7-yl)amino)pyrimidin-4-yl)amino)piperidin-1-yl)pyridazine-3-carbonitrile], the IC50 was over 300 nM at Aurora-A (h) and 291 nM against JAK3 (h). In the case of `CC(O)Cc1nc2cc(Nc3ncc(Cl)c(NC4CCN(c5ccc(C#N)nn5)CC4)n3)ccn2n1` (centres unmarked) [Example 56, 6-(4-((5-chloro-2-((2-(2-hydroxypropyl)-[1,2,4]triazolo[1,5-a]pyridin-7-yl)amino)pyrimidin-4-yl)amino)piperidin-1-yl)pyridazine-3-carbonitrile], on Aurora-A (h), the half-maximal inhibitory concentration (IC50) was over 300 nM. On the same count and under the same terms, the same measure for `N#Cc1ccc(N2CCC(Nc3nc(Nc4ccc5c(c4)nnn5CC4CC4)ncc3Cl)CC2)nc1` [Example 60, 6-(4-((5-chloro-2-((1-(cyclopropylmethyl)-1H-benzo[d][1,2,3]triazol-5-yl)amino)pyrimidin-4-yl)amino)piperidin-1-yl)nicotinonitrile]: 216 nM. As for `CC(O)Cn1cnc2cc(Nc3ncc(Cl)c(NC4CCN(c5ccc(C#N)cn5)CC4)n3)ccc21` (centres unmarked) [Example 61, 6-(4-((5-chloro-2-((1-(2-hydroxypropyl)-1H-benzo[d]imidazol-5-yl)amino)pyrimidin-4-yl)amino)piperidin-1-yl)nicotinonitrile], the IC50 against Aurora-A (h) was 113 nM; against JAK3 (h) it was 5 nM.

Consider `CC(C)(O)Cc1nc2ccc(Nc3ncc(Cl)c(NC4CCN(c5ccc(C#N)cn5)CC4)n3)cn2n1` [Example 67, 6-(4-((5-chloro-2-((2-(2-hydroxy-2-methylpropyl)-[1,2,4]triazolo[1,5-a]pyridin-6-yl)amino)pyrimidin-4-yl)amino)piperidin-1-yl)nicotinonitrile], for which the IC50 on Aurora-A (h) came out at 987 nM. At JAK3 (h), `CC(C)(O)Cc1cn2cc(Nc3ncc(Cl)c(NC4CCN(c5ccc(C#N)cn5)CC4)n3)ccc2n1` [Example 73, 6-(4-((5-chloro-2-((2-(2-hydroxy-2-methylpropyl)imidazo[1,2-a]pyridin-6-yl)amino)pyrimidin-4-yl)amino)piperidin-1-yl)nicotinonitrile] gave a half-maximal inhibitory concentration (IC50) of 112 nM. As for `CC(C)(O)Cc1nnc2cc(Nc3ncc(Cl)c(NC4CCN(c5ccc(C#N)cn5)CC4)n3)ccn12` [Example 74, 6-(4-((5-chloro-2-((3-(2-hydroxy-2-methylpropyl)-[1,2,4]triazolo[4,3-a]pyridin-7-yl)amino)pyrimidin-4-yl)amino)piperidin-1-yl)nicotinonitrile], on JAK3 (h), half-maximal inhibition (IC50) required 64 nM.

As to `CC(C)(O)Cc1nnc2cc(Nc3ncc(Cl)c(NC4CCN(c5ccc(C#N)nn5)CC4)n3)ccn12` [Example 75, 6-(4-((5-chloro-2-((3-(2-hydroxy-2-methylpropyl)-[1,2,4]triazolo[4,3-a]pyridin-7-yl)amino)pyrimidin-4-yl)amino)piperidin-1-yl)pyridazine-3-carbonitrile], on JAK3 (h), the IC50 turned out to be 202 nM.
